What was measured:
C2C12 myoblasts = assay: MTT assay (cytotoxicity); format: cell-based, mouse; settings: for cytotoxicity: result in words, comparison with the indazole derivatives; for IC50: C2C12 myoblasts, incubated 2 days with compound
Description: C2C12 myoblasts were seeded in a 96-well plate at a density of 3×10^3 cells per well. The cells were cultured for one day, and then treated with each compound. Next, the cells were incubated for 2 days, and then treated with a serum-free medium containing 3-(4,5-dimethylthiazol-2-yl)-2,5-diphenyltetrazolium bromide (MTT) for 3 hours. After removal of the medium, the cells were incubated in DMSO for 10 minutes while they were shaken. The absorbance at 570 nm was measured by a microreader (VersaMax, Molecular Devices) (see FIG. 4).

[1] = test system: C2C12 mouse skeletal myoblasts; assay: Cell screening by Alizarin red staining (direct reprogramming of myoblasts into osteoblasts); format: cell-based; design: key to Alizarin red staining (osteoblasts): ++ (strong positive); + (weak positive); − (negative); settings: for reprogramming potential in differentiation into osteoblasts: Alizarin red staining, result in words; for Alizarin red staining (osteoblasts): C2C12 myoblasts treated 72 hours with compound, then osteogenic differentiation inducing medium 14 days, reversine 100 nM
Description: A method for identifying compounds that induce cell reprogramming was based on a previous study (PMID: 23044010 and 18974773) on the myocyte-to-osteocyte conversion by bone formation induction and a previous reversine publication (Chen S 2004).
C2C12 mouse skeletal myoblasts were seeded in a 24-well cell culture dish at a density of 1×10^4 cells per well. 24 Hours after seeding, the compound of interest was added to three well at a concentration of […]. For a positive control, the cells were treated with 100 nM reversine or 2 μM BIO. The two compounds are known to induce the conversion of myoblasts to […] (Chen S 2004 and Kim WH recapitulate papers). For a negative control, the cells were untreated or treated with DMSO. The cells were treated with each compound for a total of 72 hours, and were further treated with each compound after 48 hours. The cytotoxicity of each compound could be confirmed from disappearance of a portion of the cells and from floating cell debris during culture, and a compound causing cytotoxicity was screened again at a concentration of 250 nM. After 72 hours, the medium was replaced with an osteogenic differentiation inducing medium (treated for 14 days with a DMEM supplemented with 10% FBS, […] ascorbic acid-2-phosphate, 0.1 μM dexamethasone, 10 mM β-glycerophosphate, 50 units/mL of penicillin, and […] streptomycin). The osteogenic differentiation inducing medium was based on one previously described in direct cell reprogramming (reversine papers, Chen S 2004 and Chen S 200/). Direct cell reprogramming from myocytes to osteocytes was analyzed by Alizarin red staining that detects calcium deposits (Gregory CA 2004 PMID: 15136169) in bone lineage cells.
Cells were washed once with PBS, and then fixed with phosphate-buffered formalin for 20 minutes. The fixed cells were washed with distilled water, and immersed in a solution of 1% Alizarin red-S in water for 5 minutes. The remaining dye was washed out with distilled water. The cells were dried, and then imaged with an optical microscope (CKX41 Olympus). The stained cells did look red, and a compound corresponding to such cells was selected as a ‘hit’ compound and further analyzed.

GSK-3β = target: T1, GSK-3β (Homo sapiens, UniProt P49841); assay: HTRF kinase assay, GSK-3β; format: biochemical; settings: 1 μM compound
T1 construct: purchased Millipore (Billerica, Mass.)
T1 sequence (P49841 whole entry, species assumed): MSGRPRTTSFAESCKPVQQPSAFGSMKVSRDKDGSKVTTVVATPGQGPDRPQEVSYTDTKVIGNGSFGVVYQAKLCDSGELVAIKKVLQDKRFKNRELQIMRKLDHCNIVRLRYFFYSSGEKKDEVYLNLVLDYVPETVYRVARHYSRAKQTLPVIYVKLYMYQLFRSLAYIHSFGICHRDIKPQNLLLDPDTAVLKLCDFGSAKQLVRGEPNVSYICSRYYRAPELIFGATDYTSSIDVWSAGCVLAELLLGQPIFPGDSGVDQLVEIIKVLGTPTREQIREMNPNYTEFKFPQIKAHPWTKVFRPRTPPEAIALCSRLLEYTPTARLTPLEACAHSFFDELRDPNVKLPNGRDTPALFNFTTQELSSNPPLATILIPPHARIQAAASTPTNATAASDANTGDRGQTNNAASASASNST
Description: (§1) The inhibitory activities of indazole derivatives against GSK-3 β and Aurora A were analyzed by HTRF (homogeneous time-resolved fluorescence) assay. The HTRF assay is an assay method that detects the phosphorylation of peptide substances in the presence of ATP. Phosphorylated substances were detected by TR-FRET (Time Resolved-Fluorescence Resonance) signals. Recombinant GSK-3 β and Aurora A kinase were purchased from Millipore (Billerica, Mass.). Using a HTRF KinEASE kit (Cisbio), the assay was performed. Each of GSK-3 β and Aurora A was treated with 1 μM of each indazole compound, and the degree of inhibition of phosphorylation was analyzed. The assay was composed of a compound-enzyme mixture and peptide substance dissolved in kinase reaction buffer (250 mM HEPES (pH 7.0), 0.5 mM orthovanadate, 0.05% BSA, 0.1% NaN3). After addition of detection buffer, the TR-FRET signal was detected by an EnVision multi-label reader.

Aurora A = target: T2, Aurora A (Homo sapiens, UniProt O14965); assay: HTRF kinase assay, Aurora A; format: biochemical; settings: 1 μM compound
T2 construct: purchased Millipore (Billerica, Mass.)
T2 sequence (O14965 1-403): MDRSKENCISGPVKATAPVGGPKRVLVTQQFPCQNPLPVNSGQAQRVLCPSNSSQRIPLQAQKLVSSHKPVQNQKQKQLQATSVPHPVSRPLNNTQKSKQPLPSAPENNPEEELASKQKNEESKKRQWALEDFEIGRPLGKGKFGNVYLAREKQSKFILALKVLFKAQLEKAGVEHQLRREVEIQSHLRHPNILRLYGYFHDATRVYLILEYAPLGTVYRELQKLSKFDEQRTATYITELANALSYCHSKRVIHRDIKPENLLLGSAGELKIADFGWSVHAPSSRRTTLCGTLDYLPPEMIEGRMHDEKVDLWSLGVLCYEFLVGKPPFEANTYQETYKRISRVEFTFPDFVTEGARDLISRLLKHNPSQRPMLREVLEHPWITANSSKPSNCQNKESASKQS
Description: as §1

adipocytes = assay: Oil red O staining (differentiation into adipocytes); format: cell-based; design: key to Oil red O staining (adipocytes): ++ (strong positive); + (weak positive); − (negative); settings: for reprogramming potential in differentiation into adipocytes: oil red O staining, result in words

Which cytotoxicity (C2C12 myoblasts) does the source give for `O=C1Nc2cc(Br)ccc2/C1=C1/Nc2ccccc2/C1=N\O` [BIO, reference compound] here?
The cytotoxicity was “high cytotoxicity”.

For `O=C(Nc1n[nH]c2ccc([N+](=O)[O-])cc12)c1ccccc1` [LDD-1664, N-(5-nitro-1(2)H-indazol-3-yl)-benzamide], which “reprogramming potential in differentiation into osteoblasts” value [1] is on record?
The value was “strong reprogramming potential”.

What about the “Alizarin red staining (osteoblasts)” value [1] of the same molecule?
Its value is “++”.

What about the “% Inhibition at 1 μM concentration, GSK-3β” value (“% Inhibition … GSK-3β” below) (GSK-3β) of the same molecule?
Its value is 6.5%.

What about the “% Inhibition at 1 μM concentration, Aurora-A” value (“% Inhibition … Aurora-A” for short) (Aurora A) of the same molecule?
The value was 0%.

Which “Alizarin red staining (osteoblasts)” value [1] does the source give for `O=[N+]([O-])c1ccc2[nH]nc(NS(=O)(=O)c3ccccc3)c2c1` [LDD-1667, N-(5-nitro-111-indazol-3-yl)benzenesulfonamide] here?
The value was “−”.

What about the “% Inhibition … GSK-3β” value (GSK-3β) of the same molecule?
The value was 0%.

What about the “% Inhibition … Aurora-A” value (Aurora A) of the same molecule?
The value was 0%.

What does the source list for `O=C(Nc1n[nH]c2ccc(C(=O)N3CCCCC3)cc12)c1ccccc1` [LDD-1820, N-(5-(piperidine-1-carbonyl)-1H-indazol-3-yl)benzamide]?
Alizarin red staining (osteoblasts) [1]: −; inhibition at 1 µM (GSK-3β; read-out: % Inhibition at 1 μM concentration, GSK-3β): 0.5%; inhibition at 1 µM (Aurora A; read-out: % Inhibition at 1 μM concentration, Aurora-A): 32.5%

How did the “reprogramming potential in differentiation into osteoblasts” value [1] turn out when `O=C(c1ccc2[nH]nc(C(=NO)Nc3ccccc3)c2c1)N1CCCCC1` [LDD-1821, N′-hydroxy-N-phenyl-5-(piperidine-1-carbonyl)-1H-indazole-3-carboxamide] was run?
Its value is “strong reprogramming potential”.

What about the “Alizarin red staining (osteoblasts)” value [1] of the same molecule?
Its value is “++”.

And the “Oil red O staining (adipocytes)” value (adipocytes)?
The value was “++”.

What about the “reprogramming potential in differentiation into adipocytes” value (adipocytes) of the same molecule?
The value was “strong reprogramming potential”.

What about the “% Inhibition … GSK-3β” value (GSK-3β; 1 µM) of the same molecule?
The value was “no inhibitory activity”.

And the “% Inhibition … GSK-3β” value (GSK-3β; listed as LDD1821, 1 µM)?
Its value is 0.2%.

And the “% Inhibition … Aurora-A” value (Aurora A; 1 µM)?
The value was “no inhibitory activity”.

And the “% Inhibition … Aurora-A” value (Aurora A; listed as LDD1821, 1 µM)?
Its value is 0%.

What about the IC50 (C2C12 myoblasts) of the same molecule?
Its IC50 is over 10 µM.

Which “reprogramming potential in differentiation into osteoblasts” value [1] does the source give for `O=C(c1ccc2[nH]nc(NC(=NO)c3ccccc3)c2c1)N1CCCCC1` [LDD-1945, N′-hydoxy-N-(5-(piperidine-1-carbonyl)-111-indazol-3-yl)benzimidamide] here?
Its value is “strong reprogramming potential”.

What about the “Alizarin red staining (osteoblasts)” value [1] of the same molecule?
The value was “++”.

And the IC50 (C2C12 myoblasts)?
Its IC50 is over 10 µM.

With `O=C(O)c1ccc2[nH]nc(C(=NO)Nc3ccccc3)c2c1` [LDD-1986, 3-(N′-hydroxy-N-phenylcarbamimidoyl)-1H-indazole-5-carboxylic Acid] as the molecule, how does the “Alizarin red staining (osteoblasts)” value [1] read?
Its value is “+”.

And the “Oil red O staining (adipocytes)” value (adipocytes)?
The value was “++”.

And the “reprogramming potential in differentiation into adipocytes” value (adipocytes)?
The value was “strong reprogramming potential”.

What about the IC50 (C2C12 myoblasts; Mus musculus, 48 h) of the same molecule?
The IC50 was over 10 µM.

What does the source list for `CCCN1CCN(C(=O)c2ccc3[nH]nc(C(=NO)Nc4ccccc4)c3c2)CC1` [LDD-1987, N′-hydroxy-N-phenyl-5-(4-propylpiperazine-1-carbonyl)-1H-indazole-3-carboxamide]?
Alizarin red staining (osteoblasts) [1]: +; Oil red O staining (adipocytes) (adipocytes): ++; reprogramming potential in differentiation into adipocytes (adipocytes): strong reprogramming potential; IC50 (C2C12 myoblasts): > 10 µM

`COCCN1CCN(C(=O)c2ccc3[nH]nc(C(=NO)Nc4ccccc4)c3c2)CC1` [LDD-1988, N′-hydroxy-5-(4-(2-methoxyethyl)piperazine-1-carbonyl)-N-phenyl-1H-indazole 3-carboximidamide] was tested. Which “Alizarin red staining (osteoblasts)” value [1] did it give?
Its value is “+”.

And the “Oil red O staining (adipocytes)” value (adipocytes)?
Its value is “++”.

And the “reprogramming potential in differentiation into adipocytes” value (adipocytes)?
The value was “strong reprogramming potential”.

What about the IC50 (C2C12 myoblasts; Mus musculus, 48 h) of the same molecule?
Its IC50 is over 10 µM.

How did the IC50 (C2C12 myoblasts; Mus musculus, 48 h) turn out when `O=C(O)c1ccc2[nH]nc(NC(=NO)c3ccccc3)c2c1` [LDD-2194, 3-(N′-hydroxybenzimidamido)-1H-indazole-5-carboxylic Acid] was run?
Its IC50 is over 10 µM.

Which IC50 (C2C12 myoblasts; Mus musculus, 48 h) does the source give for `COC(=O)c1ccc2[nH]nc(NC(=NO)c3ccccc3)c2c1` [LDD-2195, Methyl-3-(N′-hydroxybenzimidamido)-1H-indazole-5-carboxylate] here?
Its IC50 is over 10 µM.

`COC(=O)c1ccc2[nH]nc(C(=NO)Nc3ccccc3)c2c1` [LDD-2196, Methyl-3-(N′-hydroxy-N-phenylcarbamimidoyl)-1H-indazole-5-carboxylate] was tested. Which IC50 (C2C12 myoblasts; Mus musculus, 48 h) did it give?
Its IC50 is over 10 µM.

Which IC50 (C2C12 myoblasts) does the source give for `O=C(O)c1ccc2[nH]nc(C(=NO)Nc3ccc(F)cc3)c2c1` [LDD-2197, 3-N-(4-fluorophenyl)-N′-hydroxycarbamimidoyl-1H-indazole-5-carboxylic Acid] here?
The IC50 was over 10 µM.

`COc1ccc(NC(=NO)c2n[nH]c3ccc(C(=O)O)cc23)cc1` [LDD-2198, 3-(N′-hydroxy-N-(4-methoxyphenyl)carbaminidoyl)-1H-indazole-5-carboxylic Acid] was tested. Which IC50 (C2C12 myoblasts) did it give?
Its IC50 is over 10 µM.

`O=C(c1ccc2[nH]nc(C(=NO)Nc3ccc(F)cc3)c2c1)N1CCCCC1` [LDD-2199, N-(4-fluorophenyl)-N′-hydroxy-5-(piperidine-1-carbonyl)-1H-indazole-3-carboxamide] was tested. Which “reprogramming potential in differentiation into osteoblasts” value [1] did it give?
The value was “strong reprogramming potential”.

What about the “Alizarin red staining (osteoblasts)” value [1] of the same molecule?
The value was “++”.

What about the IC50 (C2C12 myoblasts) of the same molecule?
The IC50 was over 10 µM.

Which “reprogramming potential in differentiation into osteoblasts” value [1] does the source give for `COc1ccc(NC(=NO)c2n[nH]c3ccc(C(=O)N4CCCCC4)cc23)cc1` [LDD-2200, N′-hydroxy-N-(4-methoxyphenyl)-5-(piperidine-1-carbonyl)-1H-indazole-3-carboxamide] here?
Its value is “strong reprogramming potential”.

What about the “Alizarin red staining (osteoblasts)” value [1] of the same molecule?
Its value is “++”.

And the IC50 (C2C12 myoblasts)?
The IC50 was over 10 µM.

Which “reprogramming potential in differentiation into osteoblasts” value [1] does the source give for `c1nc2nc(Nc3ccc(N4CCOCC4)cc3)nc(NC3CCCCC3)c2[nH]1` [Reversine, reference compound] here?
The value was “strong reprogramming potential”.

What about the “Alizarin red staining (osteoblasts)” value [1] of the same molecule?
Its value is “++”.

What about the “Oil red O staining (adipocytes)” value (adipocytes) of the same molecule?
Its value is “++”.

And the cytotoxicity (C2C12 myoblasts)?
Its cytotoxicity is “high cytotoxicity”.
